ChEMBL document CHEMBL1146262, “Novel thiazolones as HCV NS5B polymerase allosteric inhibitors: Further designs, SAR, and X-ray complex structure” (Bioorg Med Chem Lett, 2007)

Assay: Inhibition of HCV NS5B polymerase by RdRp-catalyzed elongation assay
Design: species or system Hepacivirus hominis

IC50 [µM]	SMILES
6	CCc1ccc(/C=C2\SC(NC(C(=O)O)c3ccc(Br)cc3)=NC2=O)o1 (stereo not drawn)
21	CCc1ccc(/C=C2\SC(NC(C(=O)O)c3ccc(C(F)(F)F)cc3)=NC2=O)o1 (stereo not drawn)
14	CCc1ccc(/C=C2\SC(NC(C(=O)O)c3ccc4ccccc4c3)=NC2=O)o1 (stereo not drawn)
12	CCc1ccc(/C=C2\SC(NC(C(=O)O)c3ccc(C)cc3C)=NC2=O)o1 (stereo not drawn)
5.5	CCc1ccc(/C=C2\SC(NC(C(=O)NO)c3ccc(Cl)cc3Cl)=NC2=O)o1 (stereo not drawn)
19	CCc1ccc(/C=C2\SC(NC(c3ccccc3)c3nn[nH]n3)=NC2=O)o1 (stereo not drawn)
> 100	CCc1ccc(/C=C2\SC(NC(C(=O)O)C3(C)CCCC3)=NC2=O)o1 (stereo not drawn)
24	CCc1ccc(/C=C2\SC(NC(C(=O)O)c3ccc(F)c(Cl)c3)=NC2=O)o1 (stereo not drawn)
14	CCc1ccc(/C=C2\SC(NC(c3ccc(C)cc3)c3nn[nH]n3)=NC2=O)o1 (stereo not drawn)
11	CCc1ccc(/C=C2\SC(NC(C(=O)O)c3ccc(C)cc3)=NC2=O)o1 (stereo not drawn)
68	CCc1ccc(/C=C2\SC(NC(Cc3ccccc3)C(=O)O)=NC2=O)o1 (stereo not drawn)
7.6	CCc1ccc(/C=C2\SC(NC(C(=O)O)c3ccc(Cl)cc3Cl)=NC2=O)o1 (stereo not drawn)
3	CCc1ccc(/C=C2\SC(N[C@H](C(=O)O)c3ccc(F)cc3)=NC2=O)o1 (stereo in doubt)
> 100	CCc1ccc(/C=C2\SC(N[C@H](CC(=O)O)c3ccc(C#N)cc3)=NC2=O)o1 (stereo in doubt)
27	CCc1ccc(/C=C2\SC(N[C@H](CC(=O)O)c3ccc(C)cc3)=NC2=O)o1 (stereo in doubt)
25	CCc1ccc(/C=C2\SC(N[C@H](C(=O)O)C3CCCCC3)=NC2=O)o1 (stereo in doubt)
55	CCc1ccc(/C=C2\SC(N[C@H](C(=O)O)c3ccccc3)=NC2=O)o1 (stereo in doubt)
> 100	CCc1ccc(/C=C2\SC(N[C@H](CC(=O)O)c3cccnc3)=NC2=O)o1 (stereo in doubt)
59	CCc1ccc(/C=C2\SC(N[C@H](CC(=O)O)c3ccccc3)=NC2=O)o1 (stereo in doubt)
16	CCc1ccc(/C=C2\SC(N[C@H](C(N)=O)c3ccc(F)cc3)=NC2=O)o1 (stereo in doubt)
9	CCc1ccc(/C=C2\SC(N[C@@H](CC(=O)O)c3ccc(Cl)cc3Cl)=NC2=O)o1 (stereo in doubt)
8.5	CCc1ccc(/C=C2\SC(N[C@H](CC(=O)O)c3ccc(Cl)cc3Cl)=NC2=O)o1 (stereo in doubt)
43	CCc1ccc(/C=C2\SC(N[C@H](C(=O)O)c3ccc(O)cc3)=NC2=O)o1 (stereo in doubt)
16.5	CCc1ccc(/C=C2\SC(N[C@H](CC(=O)O)c3ccc(Br)cc3)=NC2=O)o1 (stereo in doubt)
24	CCc1ccc(/C=C2\SC(N[C@H](Cc3nn[nH]n3)c3ccccc3)=NC2=O)o1 (stereo in doubt)
13	CCc1ccc(/C=C2\SC(N[C@@H](CC(=O)O)c3ccc(F)cc3)=NC2=O)o1 (stereo in doubt)
44	CCc1ccc(/C=C2\SC(N[C@H](CC(=O)O)c3ccc(F)cc3)=NC2=O)o1 (stereo in doubt)
50	CCc1ccc(/C=C2\SC(N[C@@H](C(=O)O)c3ccc(F)cc3)=NC2=O)o1 (stereo in doubt) [VALEANT]
